Experimental data: patent US20260217735A1, “HETEROCYCLES AND USES THEREOF” (Kumquat Biosciences Inc., priority 2023, published 2026)

How the values were obtained:
[1] = biological target: T1, KRAS G12D (Homo sapiens, UniProt P01116, G12D); test: HTRF assay, KRAS G12D interaction with SOS1; assay type: biochemical; conditions: bins <500 nM / 500 nM to 1000 nM, read-out: Inhibition of KRAS G12D (IC50)
T1 construct: made in house; host or cells: E. coli, e.g. BL21 (DE3)

[2] = biological target: T2, KRAS WT (Homo sapiens, UniProt P01116); test: HTRF assay, wildtype KRAS interaction with SOS1; assay type: biochemical; conditions: bins <500 nM / 500 nM to 1000 nM, read-out: Inhibition of KRAS WT (IC50)
T2 construct: made in house; host or cells: E. coli, e.g. BL21 (DE3)

[3] = biological target: T3, KRAS G12V (Homo sapiens, UniProt P01116, G12V); test: HTRF assay, KRAS G12V interaction with SOS1; assay type: biochemical; conditions: bins <500 nM / 500 nM to 1000 nM, read-out: Inhibition of KRAS G12V (IC50)
T3 construct: made in house; host or cells: E. coli, e.g. BL21 (DE3)

[4] = biological target: T4, KRAS G12S (Homo sapiens, UniProt P01116, G12S); test: HTRF assay, KRAS G12S interaction with SOS1; assay type: biochemical; conditions: bins <500 nM / 500 nM to 1000 nM, read-out: Inhibition of KRAS G12S (IC50)
T4 construct: made in house; host or cells: E. coli, e.g. BL21 (DE3)

[5] = test system: MiaPaca2 cells; test: Ras cellular assay, growth of cells with K-Ras G12C mutation; assay type: cell-based; conditions: Homo sapiens, MIA PaCa-2; cell proliferation assay; bins ≤500 nM / >500 nM; read-out: Inhibition of MiaPaca2 Cells (IC50)
Procedure, shortened: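 Anchorage-independent growth: G12C-mutant MIA PaCa-2 plated in soft agar, time-zero plate read the next day when compound was dosed (final DMSO 0.3%). After growth to day 10, MTS-type absorbance at 490/660 nm relative to time zero gave IC50 via four-parameter fitting.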

T2 sequence (P01116 1-188 isoform P01116-2): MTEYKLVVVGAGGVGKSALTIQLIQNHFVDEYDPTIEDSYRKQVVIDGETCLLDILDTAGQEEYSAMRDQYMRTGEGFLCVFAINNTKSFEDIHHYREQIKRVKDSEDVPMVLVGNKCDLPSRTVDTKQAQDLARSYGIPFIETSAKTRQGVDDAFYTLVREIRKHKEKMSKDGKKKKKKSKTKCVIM
T4 sequence (P01116 1-188 isoform P01116-2 G12S): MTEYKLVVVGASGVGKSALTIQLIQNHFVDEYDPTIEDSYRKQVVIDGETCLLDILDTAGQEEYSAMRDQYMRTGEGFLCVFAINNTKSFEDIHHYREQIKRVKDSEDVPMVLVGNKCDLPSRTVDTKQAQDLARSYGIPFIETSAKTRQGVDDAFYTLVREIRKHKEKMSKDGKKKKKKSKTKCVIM
T1 sequence (P01116 1-188 isoform P01116-2 G12D): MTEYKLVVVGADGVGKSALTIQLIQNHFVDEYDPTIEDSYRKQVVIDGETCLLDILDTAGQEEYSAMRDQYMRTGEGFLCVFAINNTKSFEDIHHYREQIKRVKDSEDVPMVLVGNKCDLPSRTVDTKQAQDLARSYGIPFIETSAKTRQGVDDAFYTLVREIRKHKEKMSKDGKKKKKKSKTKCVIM
T3 sequence (P01116 1-188 isoform P01116-2 G12V): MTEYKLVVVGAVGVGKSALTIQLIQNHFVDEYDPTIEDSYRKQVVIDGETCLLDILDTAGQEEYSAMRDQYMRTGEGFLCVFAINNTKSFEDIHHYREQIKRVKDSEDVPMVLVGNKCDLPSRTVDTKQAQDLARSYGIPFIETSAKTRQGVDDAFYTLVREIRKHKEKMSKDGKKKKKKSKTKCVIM

IC50 [1]	IC50 [2]	IC50 [3]	IC50 [4]	IC50 [5]	Compound
< 500 nM	< 500 nM	< 500 nM	< 500 nM	≤ 500 nM	C[C@@H]1[C@H](N(C)c2nc(OC[C@@]34CCCN3C[C@H](F)C4)nc3c(F)c(-c4ccc(F)c5sc(N)c(C#N)c45)c(Cl)cc23)CCN1C(=O)n1ccc(C#N)n1 [Compound 126, 1-((2R,3R)-3-((7-(2-amino-3-cyano-7-fluorobenzo[b]thiophen-4-yl)-6-chloro-8-fluoro-2-(((2R,7aS)-2-fluorotetrahydro-1H-pyrrolizin-7a(5H)-yl)methoxy)quinazolin-4-yl)(methyl)amino)-2-methylpyrrolidine-1-carbonyl)-1H-pyrazole-3-carbonitrile]
< 500 nM	< 500 nM	< 500 nM	< 500 nM	≤ 500 nM	Cc1nc(C)n(C(=O)N2CC[C@@H](N(C)c3nc(OC[C@@]45CCCN4C[C@H](F)C5)nc4c(F)c(-c5ccc(F)c6sc(N)c(C#N)c56)c(Cl)cc34)[C@H]2C)c1C [Compound 127, 2-amino-4-(6-chloro-8-fluoro-2-(((2R,7aS)-2-fluorotetrahydro-1H-pyrrolizin-7a(5H)-yl)methoxy)-4-(methyl((2R,3R)-2-methyl-1-(2,4,5-trimethyl-1H-imidazole-1-carbonyl)pyrrolidin-3-yl)amino)quinazolin-7-yl)-7-fluorobenzo[b]thiophene-3-carbonitrile]
< 500 nM	< 500 nM	< 500 nM	< 500 nM	≤ 500 nM	Cc1cn(C(=O)N2CC(F)(CN(C)c3nc(OC[C@@]45CCCN4C[C@H](F)C5)nc4c(F)c(-c5ccc(F)c6sc(N)c(C#N)c56)c(Cl)cc34)C2)cn1 [Compound 128, 2-amino-4-(6-chloro-8-fluoro-4-(((3-fluoro-1-(4-methyl-1H-imidazole-1-carbonyl)azetidin-3-yl)methyl)(methyl)amino)-2-(((2R,7aS)-2-fluorotetrahydro-1H-pyrrolizin-7a(5H)-yl)methoxy)quinazolin-7-yl)-7-fluorobenzo[b]thiophene-3-carbonitrile]
< 500 nM	< 500 nM	< 500 nM	< 500 nM	≤ 500 nM	CCN(c1nc(OC[C@@]23CCCN2C[C@H](F)C3)nc2c(F)c(-c3ccc(F)c4sc(N)c(C#N)c34)c(Cl)cc12)[C@@H]1CCN(C(=O)n2cc(Cl)nc2C)[C@@H]1C [Compound 130, 2-amino-4-(6-chloro-4-(((2R,3R)-1-(4-chloro-2-methyl-1H-imidazole-1-carbonyl)-2-methylpyrrolidin-3-yl)(ethyl)amino)-8-fluoro-2-(((2R,7aS)-2-fluorotetrahydro-1H-pyrrolizin-7a(5H)-yl)methoxy)quinazolin-7-yl)-7-fluorobenzo[b]thiophene-3-carbonitrile]
< 500 nM	< 500 nM	< 500 nM	< 500 nM	≤ 500 nM	Cc1ncn(C(=O)N2C[C@]3(CCCCN(c4nc(OC[C@@]56CCCN5C[C@H](F)C6)nc5c(F)c(-c6ccc(F)c7sc(N)c(C#N)c67)c(Cl)cc45)C3)[C@H]2C)c1C [Compound 131, 2-amino-4-(6-chloro-4-((1R,4R)-2-(4,5-dimethyl-1H-imidazole-1-carbonyl)-1-methyl-2,6-diazaspiro[3.6]decan-6-yl)-8-fluoro-2-(((2R,7aS)-2-fluorotetrahydro-1H-pyrrolizin-7a(5H)-yl)methoxy)quinazolin-7-yl)-7-fluorobenzo[b]thiophene-3-carbonitrile]
< 500 nM	< 500 nM	< 500 nM	< 500 nM	≤ 500 nM	CC[C@@H]1[C@H](N(C)c2nc(OC[C@@]34CCCN3C[C@H](F)C4)nc3c(F)c(-c4ccc(F)c5sc(N)c(C#N)c45)c(Cl)cc23)CCN1C(=O)n1cnc(F)n1 [Compound 134, 2-amino-4-(6-chloro-4-(((2R,3R)-2-ethyl-1-(3-fluoro-1H-1,2,4-triazole-1-carbonyl)pyrrolidin-3-yl)(methyl)amino)-8-fluoro-2-(((2R,7aS)-2-fluorotetrahydro-1H-pyrrolizin-7a(5H)-yl)methoxy)quinazolin-7-yl)-7-fluorobenzo[b]thiophene-3-carbonitrile]
